Test [1] concerns the target T1, human rhinovirus 3C protease (GST-HRV3C, PreScission protease) (Human rhinovirus 14, UniProt P03303).
T1 construct: made in house; host or cells: E. coli Rosetta (DE3)pLysS
The test can be described thus: Irreversible tethering counter-screen (ESI-MS) against HRV3C protease. The class given is binding. The note with it: mixtures of ten fragments 100 μM each, 1 h. Here is the method: FIG. 28A, FIG. 28B, FIG. 28C and FIG. 28D. Counterscreen of compound 6 against the deubiquitinase USPO8 and Human Rhinovirus (HRV) 3C protease, both of which have catalytic cysteines. Compound 6 at 100 μM in 1% DMSO was incubated with the catalytic domain of the indicated cysteine protease (10 μM) for 1 h, followed by gel filtration and whole protein ESI-MS.
To further test the specificity of the developed irreversible tethering system, we conducted a counter-screen of the same set of 100 compounds (10 mixtures of 10 compounds each) against three other enzymes: human rhinovirus 3C protease, the deubiquitinase USP08, and the E2 ubiquitin-conjugating enzyme UbcH7. […] The molecular weight of GST-HRV3C protease is 47566.72 Da and its amino acid sequence is provided as (SEQ ID NO:2).
10 μM of papain (Sigma P4762), UbcH7 (recombinantly expressed) or USPO8 (recombinantly expressed) in 50 mM HEPES 150 mM NaCl 0.1 mM EDTA pH 7.5 was treated with a mixture of ten fragments (Table S2) (10 mM DMSO stock solutions, final concentrations: 100 μM of each fragment, and 1% DMSO). The reaction mixture was incubated for 1 h or 4 h at 23° C. before being passed through Zeba gel filtration columns (Thermo, 7K MWCO) to remove unreacted fragments. The protein solution was then immediately analyzed by whole protein LC/ESI-MS.
Accurate-mass data were obtained on an Agilent 6210A LC-TOF mass spectrometer in positive ion mode using electrospray ionization. Samples were chromatographed on the LC-TOF instrument using a Poroshell 120 EC-C18 HPLC column (2.1*50 mm, 2.7 micron), an Agilent Series 1200 HPLC binary pump, and an Agilent Series 1200 autoinjector. The HPLC column was held at 45° C. and the autosampler was held at 8° C. Mobile Phase A was a solution of 0.1% formic acid in water:acetonitrile (19:1). Mobile Phase B was a solution of 0.1% formic acid in acetonitrile. The flow rate was set to 250 μL/min. The gradient used was 0% B for 2 minutes, ramping linearly to 90% B from 2 minutes to 5 minutes, holding at 90% B from 5 minutes to 7 minutes, and then returning to 0% B at 7.1 minutes. […]

The target in test [2] is T2, papain (Carica papaya, UniProt P00784).
T2 construct: purchased Sigma P4762
T2 sequence (P00784 134-345): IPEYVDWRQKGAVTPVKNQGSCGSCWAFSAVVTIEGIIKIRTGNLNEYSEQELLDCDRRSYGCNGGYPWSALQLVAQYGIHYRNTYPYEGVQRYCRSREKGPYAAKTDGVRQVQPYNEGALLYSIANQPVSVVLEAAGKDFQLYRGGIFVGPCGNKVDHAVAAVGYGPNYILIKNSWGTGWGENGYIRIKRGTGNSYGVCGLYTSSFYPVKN
Briefly: Irreversible tethering screening assay (whole protein ESI-MS) against papain. The class given is binding. The procedure:
Papain (10 μM) was incubated for one hour with ten reaction mixtures that each contained ten electrophilic fragments (100 μM each) (Table S2).
Hits were defined as any compounds which labeled papain more than 50%. […] Such selectivity is impressive, given a 9-fold excess of other cysteine reactive electrophiles over compounds 6, 7, and 8. […] This is despite the fact that these reaction mixtures contain a 100-fold excess of cysteine reactive electrophiles relative to the highly reactive catalytic cysteine of papain. […]
10 μM of papain (Sigma P4762), UbcH7 (recombinantly expressed) or USPO8 (recombinantly expressed) in 50 mM HEPES 150 mM NaCl 0.1 mM EDTA pH 7.5 was treated with a mixture of ten fragments (Table S2) (10 mM DMSO stock solutions, final concentrations: 100 μM of each fragment, and 1% DMSO). […] The protein solution was then immediately analyzed by whole protein LC/ESI-MS. […]
200 μL of papain and compound 6-8 adducts were prepared separately as described above in “irreversible tethering screening assay” by incubating papain (10 μM) with 100 μM of compounds 6-8 in 1% DMSO 50 mM HEPES 150 mM NaCl 0.1 mM EDTA pH 7.5. […] The cassettes were dialyzed against 500 mL of 50 mM HEPES 150 Mm NaCl 0.1 mM EDTA pH 7.5 for 16 h, then 20 μL were extracted and analyzed by ESI-MS. […]

Test [3] is described as follows: NMR rate studies: pseudo-first order reaction with N-acetylcysteine methyl ester. In kind it is physicochemical. The conditions noted are these: electrophile 10 mM, N-acetyl cysteine methyl ester 78 mM, 2:1 deuterated PBS:DMSO-d6, pD 8, NMR. An excerpt:
We further validated the utility of electrophile 3 as a thiol-reactive tether by making a library of one hundred structurally diverse drug-like fragments 6-105 containing this electrophile. The library was constructed with an HBTU amide coupling with commercially available carboxylic acid fragments (FIG. 2A). The acids were selected with “rule of three” criteria^15 and a subsequent diversity analysis. We measured the reaction rates for the first fifty fragments to confirm that this library would have balanced cysteine reactivity and could be used for irreversible tethering (FIG. 2B).
N-Acetyl cysteine methyl ester was dissolved in 2:1 deuterated PBS:DMSO-d6 (78 mM) with 10 mM CH2Cl2 as an internal standard. The electrophile (10 mM) was then added immediately prior to acquiring spectra. H1 spectra were taken every 30 s for 30 min (or every 4 s for 5 min for highly reactive compounds 1c and 2a-c). The integrals of the vinyl peaks were used to determine the concentration of the electrophile over time. The natural logarithm of the concentration of the electrophile versus time was then plotted using GraphPad Prism software. The linear slope of this plot was used to determine the pseudofirst order rate constant. Deuterated PBS recipe: 20 mM Na3PO4, 50 mM NaCl in D2O was adjusted to pD 8 with DC1 solution.

For test [4], the target named is T3, NEDD4-1 HECT domain (Homo sapiens, UniProt P46934).
T3 construct: to elute NEDD4-1 HECT domain (50 mM HEPES, 150 mM NaCl, 0.1 mM EDTA 1 mM DTT); GST (N, cleaved yes); made in house; host or cells: E. coli BL21
T3 sequence (P46934 with tags, fused parts or gaps): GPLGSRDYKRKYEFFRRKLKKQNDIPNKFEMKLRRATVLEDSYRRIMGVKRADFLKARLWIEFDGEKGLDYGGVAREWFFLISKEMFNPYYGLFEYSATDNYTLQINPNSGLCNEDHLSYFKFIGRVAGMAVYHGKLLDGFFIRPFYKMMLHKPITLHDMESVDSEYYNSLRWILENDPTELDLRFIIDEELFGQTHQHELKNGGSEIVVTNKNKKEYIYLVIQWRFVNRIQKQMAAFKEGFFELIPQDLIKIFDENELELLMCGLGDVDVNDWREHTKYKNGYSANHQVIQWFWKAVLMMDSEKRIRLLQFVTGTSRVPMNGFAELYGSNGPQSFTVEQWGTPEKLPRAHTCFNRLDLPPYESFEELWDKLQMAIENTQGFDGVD
Briefly: In vitro ubiquitination assays. The conditions noted are these: NEDD4-1 HECT pretreated with 1 mM compound for 3 h, quenched after 5 min. The class given is biochemical. Here is the method: FIG. 15A, FIG. 15B and FIG. 15C. (FIG. 15A) Enzymatic assay with compounds 1, 2, and 4. NEDD4-1 HECT domain was pretreated with 1% DMSO (lane 1), or 1 mM of compounds 1 (lane 2), 2 (lane 3), or 4 (lane 4) for 3 h before beginning the assay. The reaction mixtures were quenched after 5 min, and polyubiquitin chains were detected by Western blot with anti-ubiquitin antibody. (FIG. 15B) Cartoon depiction of the crystal structure of NEDD4-1:1 with key side chains and the inhibitor shown as spheres. (FIG. 15C) Close-up view of the inhibitor-binding site with the key side chains depicted as sticks and colored by atom type. The 2FO-FC electron density map (mesh, contoured at 1.0 σ) is presented for Cys^627 and 1.
FIG. 16A, FIG. 16B, FIG. 16C and FIG. 16D. (FIG. 16A) and (FIG. 16B) Compound 6 disrupts the NEDD4-1:Ub interaction as shown by a fluorescence polarization assay. Mean±s.e.m., n=3. (FIG. 16C) Compound 6 inhibits the ability of NEDD4-1 to polyubiquitinate the Wbp2-C-K222 protein substrate. NEDD4-1 was pretreated with 1% DMSO (lane 1), or 100 μM of compound 6 (lane 2) or compound 4 (lane 3) for 1.5 h before beginning the assay. Reaction mixtures were quenched at the indicated times and the amount of ubiquitinated Wbp2-C-K222 was determined using in-gel fluorescence. (FIG. 16D) Quantification of polyubiquitin chains in FIG. 16B. Mean±s.e.m., n=2. […]

Test [5] addresses T2, papain. Briefly: Papain activity assay (Cbz-Gly-ONp, kinact/KI). In kind it is biochemical. Here is the method:
We subsequently tested compounds 6-8 in an enzymatic assay to confirm that they inhibited papain in the concentration and time dependent manner that is characteristic of irreversible inhibitors.^18 Using assay conditions previously described for papain,^17 we determined kinact/K1 values for compounds 6-8 (FIGS. 4 and 10).
Papain (4.8 μM) in 50 mM Na3PO4 2 mM EDTA was preactivated with 1 mM DTT for 30 min. Activated papain (3.84 μM) in 4:1 mixture of 50 mM Na3PO4, 2 mM EDTA at pH 6.2 and acetronitrile was then preincubated for 1 h with varying concentrations of the electrophilic fragment. Every 10 min, 10 μL of the reaction mixture was added to a well of 96-well plate containing 100 μL of 4:1 50 mM Na3PO4 2 mM EDTA pH 6.2:acetronitrile with 400 μM Cbz-Gly-ONp. p-Nitrophenol product formation was monitored by absorbance at 340 nm (£: 6800 M-1 cm-1) with a Biotek Synergy 4 plate reader. All reactions were performed in duplicate. Product concentration versus time was plotted with GraphPad Prism software and the initial slope was calculated to determine enzymatic activity (E). The values of kinact/KI for each inhibitor were then determined according to the method of Kitz and Wilson.23 Briefly, the slopes of the plots of ln(100*Einhibited/Euninhibited) vs. time were used to determine the pseudo-first order inhibition constant kobs for a given concentration of a given inhibitor. […]

T1 sequence (P03303 1538-1719, added parts left off): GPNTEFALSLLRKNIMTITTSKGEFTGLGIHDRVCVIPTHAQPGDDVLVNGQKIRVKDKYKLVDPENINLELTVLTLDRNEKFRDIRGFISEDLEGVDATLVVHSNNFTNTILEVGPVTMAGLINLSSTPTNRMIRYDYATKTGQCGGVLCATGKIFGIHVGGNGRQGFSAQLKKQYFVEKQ

As for `COC(=O)/C=C/CNC(=O)c1cc2cc(Cl)cc(OC)c2o1` [Compound 98], in test [1], the “labeling of HRV3C protease” value is on record as ~20%.

As to `COC(=O)/C=C/CNC(=O)[C@H](Cc1ccccc1)NC(C)=O` [Compound 106, reference compound], the “effect of pretreatment of papain on subsequent labeling by compounds 6-8” value in test [2] (100 μM 106 for 1 h, then 100 μM of 6, 7 or 8) is reported as “blocked subsequent labeling by compounds 6-8”.

For `COC(=O)/C=C/CNC(=O)c1csc(-c2cccs2)n1` [Compound 22], in test [3], the k pseudo-first order was found to be 0.0007605 s⁻¹. Further, the “labeling of HRV3C protease” value in test [1] is ~35%.

Turning to `COC(=O)/C=C/CNC(=O)c1c[nH]nc1-c1cccc(F)c1` [Compound 4, Methyl(E)-4-(3-(3-fluorophenyl)-1H-pyrazole-4-carboxamido)but-2-enoate], in test [4], the “polyubiquitin chain assembly by NEDD4-1 (anti-ubiquitin Western blot)” value is “did not affect NEDD4-1 activity”.

On to `COC(=O)/C=C/CNC(=O)c1ccc(C2CCCO2)s1` (centres unmarked) [Compound 19], for which the k pseudo-first order in test [3] amounted to 0.0004396 s⁻¹. Also, in test [5], the “fold less potent at inhibiting papain than the least potent inhibitor 6” value is ~10 fold and the “fold less potent at inhibiting papain than the most potent inhibitor 7” value is on record as ~33 fold. In addition, the “covalent labeling of papain” value in test [2] (papain 10 μM, mixtures of ten fragments 100 μM each, 1 h, hit = labeled papain more than 50%) is given as “did not label papain”.

`COC(=O)/C=C/CNC(=O)c1ccc2ccccc2n1` [Compound 32]: the k pseudo-first order in test [3] was 0.0006296 s⁻¹. In addition, the “labeling of HRV3C protease” value in test [1] is ~20%.
